Read-outs that look alike come from different tables or passages of the source.
What was measured:
SK-MES carcinoma = experiment: In vivo evaluation against SK-MES human lung carcinoma xenograft, i.v. (Example 11); settings: for Mean Score: tumor score 1 to 10 per mouse, group mean
Protocol: Two antitumor compounds were formulated for an i.v. dosing regime prepared in the following vehicle: 10% ethanol, 10% Cremophor and 80% isotonic saline. […] Other compounds were formulated similarly.
The MTDs for the antitumor compounds were calculated from earlier single dose data for mice receiving i.v. administration of these compounds. […] Vehicle control animals were dosed twice intravenously with half the total volume being given separated by one hour. The study was terminated at Day 60.
(§1) The results are summarized in Table 1 and include mean days of survival (MDS), number of toxic deaths, number of survivors, number of complete or partial responses, and number with stable disease. The mean days of survival is the number of days after which a neoplasm reached a size of 1.5 g and the animal was euthanized. A complete response is obtained if the tumor is not palpable at the end of the study. A partial response is obtained if the tumor shrinks to a size smaller than its size on Day 1 of the study.
A tumor scoring system was designed to provide a more quantitative ranking of efficacy (therapeutic potential) among the antitumor agents evaluated against the different human solid tumor xenografts. Each mouse in a study was given a score of from 1 to 10 at the end of the study. The scores can be summarized as follows:
The individual score for each mouse was averaged into a mean score for each treatment group. […]

[1] = test system: MX-1 Human Breast Carcinoma Xenograft; settings: i.v. qd x 1 (Taxol 36 mg/kg split dose, 1393 72.6 mg/kg); for Mean Score: tumor score 1 to 10, group mean
Protocol: Antitumor compounds were formulated for an i.v. dosing regime (single i.v. bolus on qd x 1 schedule) prepared in the following vehicle: 5% ethanol, 5% Cremophor and 90% isotonic saline. […] Other compounds were similarly formulated. […] The dosing volume was 0.3 ml per 20 g mouse.
All vehicle control animals in the split dosing regimes were dosed twice intravenously with half the total volume being given separated by one hour. The study was terminated on Day 60.
(§2) The mean days of survival is the number of days after which a neoplasm reached a size of 2.0 g and the animal was euthanized. A complete response is obtained if the tumor is not palpable at the end of the study. A partial response is obtained if the tumor shrinks to a size smaller than its size on Day 1 of the study. […]

[2] = test system: A2780 Human Ovarian Carcinoma Xenografts
Protocol: Other antitumor compounds were similarly formulated. […] The dosing volume was 0.3 ml per 20 g mouse.
Female NCr-nude mice (implanted subcutaneously with 1 mm^3 A2780 ovarian carcinoma fragments in the flank) were sorted into treatment groups of five mice each, except for the Taxotere treatment group including six mice. […] Dosing was initiated on Day 1. The antitumor compounds were given i.v. at an estimated maximum tolerated dose (MTD) appropriate for each agent on a qd x 1 schedule (single administration of compound). […] Taxotere was given i.v. on a qd x 1 schedule at a dose of 70 mg/kg. The vehicle was administered i.v. to control mice in Group 1 on the qd x 1 schedule. Treatment groups are detailed in Table 7. The study was terminated on Day 60.
as §1, with “Table 8” for “Table 1”, “of 2.0” for “of 1.5”

[3] = test system: SKMES Human Lung Carcinoma Xenograft; settings: for MDS (n): days until tumor reached 2.0 g
Protocol: Antitumor compounds were formulated for oral administration over a wide dose range in a study to investigate the efficacy of this compound against the SKMES human lung cancer xenograft. The antitumor compounds were prepared in the following vehicle: 5% ethanol, 5% Cremophor and 90% isotonic saline.
Female Nu/Nu mice (6-8 weeks of age; implanted with 1 mm^3 SKMES lung carcinoma fragments in the flank) were sorted into treatment groups of six mice each. SKMES size ranges and group mean SKMES size ranges were 126-448 mg and 238-241 mg, respectively. […] Treatments were administered as a single oral bolus on Day 1, and the study was terminated on Day 60.
as §2, with “which a SKMES neoplasm reached” for “which a neoplasm reached”

[4] = test system: HCT116 human colon carcinoma xenograft; settings: 10 mice/group, study end Day 60
Source text: Six groups consisting of ten mice in each group were made up of female Nu/Nu mice (8-9 weeks of age; implanted with 1 mm^3 HCT116 human […] carcinoma fragments in the flank). Another six groups consisting of ten mice in each group were made up of male Nu/Nu mice (6-7 weeks of age; implanted with 1 mm^3 HCT116 human […] carcinoma fragments in the flank). […] The study was terminated on Day 60.
The results are summarized in Table 19 for the female mice and Table 20 for the male mice. Included are mean days of survival (MDS), number of toxic deaths, number of survivors, number of complete or partial responses, and number with stable disease. The mean days of survival is the number of days after which an […] neoplasm reached a size of 1.5 g and the animal was euthanized. A complete response is obtained if the tumor is not palpable at the end of the study. A partial response is obtained if the tumor shrinks to a size smaller than its size on Day 1 of the study. […]

[5] = i.v. split dose qd x 1 at MTD (Taxol 36 mg/kg, 1393 72.1 mg/kg), 6 mice/group, Day 60
[6] = i.v. split dose qd x 1 at MTD (Taxol 36 mg/kg, 1393 72.1 mg/kg)
[7] = Taxol i.p. 15 mg/kg qd x 5, 5 mice, Day 60
[8] = i.v. qd x 1 (mg/kg: Taxol 24, 1351 75.3, 1401 107.6, 1418 107.6, Taxotere 70), Day 60
[9] = 40 mg/kg single oral bolus Day 1, 6 mice/group, study end Day 60
[10] = female mice, 18 mg/kg i.v. qd x 5
[11] = male mice, 18 mg/kg i.v. qd x 5
[12] = 42 mg/kg single oral bolus Day 1, 6 mice/group, study end Day 60
[13] = 73 mg/kg single oral bolus Day 1, 6 mice/group, study end Day 60
[14] = 104 mg/kg single oral bolus Day 1, 6 mice/group, study end Day 60
[15] = female mice, 104 mg/kg i.v. in 5% ethanol and 95% Liposyn II (Group 4)
[16] = female mice, 104 mg/kg i.v. in 5% ethanol and 95% Liposyn III (Group 5)
[17] = female mice, 104 mg/kg oral in 5% ethanol, 5% Cremophor and 90% isotonic saline (Group 6)
[18] = male mice, 73 mg/kg i.v. in 5% ethanol and 95% Liposyn II (Group 4)
[19] = male mice, 73 mg/kg i.v. in 5% ethanol and 95% Liposyn III (Group 5)
[20] = male mice, 73 mg/kg oral in 5% ethanol, 5% Cremophor and 90% isotonic saline (Group 6)

`CC(=O)O[C@H]1C(=O)[C@@]2(C)[C@H]([C@H](OC(=O)c3ccccc3)[C@]3(O)C[C@H](OC(=O)[C@H](O)[C@@H](NC(=O)c4ccccc4)c4ccccc4)C(C)=C1C3(C)C)[C@]1(OC(C)=O)CO[C@@H]1C[C@@H]2O` [Taxol, paclitaxel, reference compound] was tested, and the “survival extension compared to vehicle controls” value (SK-MES carcinoma; Taxol 36 mg/kg i.v.) was 30%, the tolerability (SK-MES carcinoma; i.v. at MTD) was “well tolerated” and the “MDS (n)” value (SK-MES carcinoma; i.v. split dose qd x 1 at MTD (Taxol 36 mg/kg, 1393 72.1 mg/kg), 6 mice/group, 1.5 g cut-off, Day 60) was 16 ± 2.0 (6) days. For the same compound, the “Complete Response” value (SK-MES carcinoma; [5]) was 0, the “Partial Response” value (SK-MES carcinoma; [5]) was 0 and the “Stable Disease” value (SK-MES carcinoma; [5]) was 0. The Survivors (SK-MES carcinoma; [5]) was 0, the “Toxic Deaths” value (SK-MES carcinoma; [5]) was 0 and the “Mean Score” value (SK-MES carcinoma; [6]) was 1.3 ± 0.3. For the same compound, the “Complete Response” value ([1]; 6 mice/group, Day 60) was 0, the “Partial Response” value ([1]; 6 mice/group, Day 60) was 0 and the Survivors ([1]; 6 mice/group, Day 60) was 1. For the same compound, the “Mean Score” value [1] was 1.2 ± 0.8, the toxicity ([2]; Taxol i.p. 15 mg/kg qd x 5) was “highly toxic” and the “Complete Response” value [2, 7] was 0. For the same compound, the “Partial Response” value [2, 7] was 0, the “Stable Disease” value [2, 7] was 0 and the Survivors [2, 7] was 0. The “Mean Score” value ([2]; Taxol i.p. 15 mg/kg qd x 5, tumor score 1 to 10, group mean) was 0.6 ± 0.6, the “MDS (n)” value ([2]; i.v. qd x 1 (mg/kg: Taxol 24, 1351 75.3, 1401 107.6, 1418 107.6, Taxotere 70), 2.0 g cut-off, Day 60) was 21.9 ± 5.5 (5) days and the “Complete Response” value [2, 8] was 0. The “Partial Response” value [2, 8] was 0, the Survivors [2, 8] was 1 and the “Toxic Deaths” value [2, 8] was 0. The “Mean Score” value ([2]; i.v. qd x 1 (mg/kg: Taxol 24, 1351 75.3, 1401 107.6, 1418 107.6, Taxotere 70), tumor score 1 to 10, group mean) was 1.8 ± 0.4, the “survival extension compared to Group 1 controls” value ([2]; i.v. qd x 1 (mg/kg: Taxol 24, 1418 107.6, Taxotere 70)) was 87% and the “% Total Response” value [3, 9] was 0%. For the same compound, the “Complete Responses” value [3, 9] was 0, the “Partial Responses” value [3, 9] was 0 and the “Stable Disease” value [3, 9] was 0. For the same compound, the Survivors [3, 9] was 0, the “Toxic Deaths” value [3, 9] was 0 and the “MDS (n)” value [3, 9] was 13.2 ± 1.4 (6) days. The “Complete Responses” value [4, 10] was 4, the “Partial Responses” value [4, 10] was 1 and the “Stable Disease” value [4, 10] was 1. For the same compound, the Survivors [4, 10] was 6, the “Toxic Deaths” value [4, 10] was 1 and the “Complete Responses” value [4, 11] was 1. The “Partial Responses” value [4, 11] was 2, the “Stable Disease” value [4, 11] was 1 and the Survivors [4, 11] was 4. For the same compound, the “Toxic Deaths” value [4, 11] was 0.

For `CCC(=O)O[C@H]1C[C@H]2OC[C@@]2(OC(C)=O)[C@H]2[C@H](OC(=O)c3ccccc3)[C@]3(O)C[C@H](OC(=O)[C@H](O)[C@@H](NC(=O)OC(C)(C)C)c4ccco4)C(C)=C([C@@H](O)C(=O)[C@]12C)C3(C)C` [Compound 1393, 3'-Desphenyl-3'-(2-furyl)-7-propionyl taxotere], the complete response rate (SK-MES carcinoma; 1393 72.1 mg/kg i.v.) was 100%, the “days between which complete responses occurred” value (SK-MES carcinoma; 1393 72.1 mg/kg i.v.) was 14 to 24 days and the “Complete Response” value (SK-MES carcinoma; [5]) was 6. For the same compound, the “Partial Response” value (SK-MES carcinoma; [5]) was 0, the “Stable Disease” value (SK-MES carcinoma; [5]) was 0 and the “Toxic Deaths” value (SK-MES carcinoma; [5]) was 0. For the same compound, the “Mean Score” value (SK-MES carcinoma; [6]) was 10+0, the “Partial Response” value ([1]; 6 mice/group, Day 60) was 1 and the “Stable Disease” value ([1]; 6 mice/group, Day 60) was 0. For the same compound, the “Mean Score” value [1] was 9.8 ± 0.2, the “Toxic Deaths” value ([3]; 5.2 mg/kg single oral bolus Day 1, 6 mice/group, study end Day 60) was 0 and the “Toxic Deaths” value ([3]; 10.4 mg/kg single oral bolus Day 1, 6 mice/group, study end Day 60) was 0. For the same compound, the “Toxic Deaths” value ([3]; 20.8 mg/kg single oral bolus Day 1, 6 mice/group, study end Day 60) was 0, the “Toxic Deaths” value [3, 12] was 0 and the “MDS (n)” value [3, 12] was 23.2 ± 4.8 (4) days. For the same compound, the “% Total Response” value [3, 13] was 83.3%, the “Toxic Deaths” value [3, 13] was 0 and the “% Total Response” value [3, 14] was 83.3%. The “Toxic Deaths” value [3, 14] was 0, the MDS ([3]; SKMES, 1393 single oral bolus 42 mg/kg (Group 7), 2.0 g cut-off) was 23.2 days and the “Partial Responses” value [4, 15] was 3. The “Stable Disease” value [4, 15] was 2, the “Toxic Deaths” value [4, 15] was 0 and the “Complete Responses” value [4, 16] was 5. The “Partial Responses” value [4, 16] was 3, the “Stable Disease” value [4, 16] was 2 and the “Toxic Deaths” value [4, 16] was 0. The “Complete Responses” value [4, 17] was 4, the “Partial Responses” value [4, 17] was 3 and the “Stable Disease” value [4, 17] was 2. The “Toxic Deaths” value [4, 17] was 0, the “Complete Responses” value [4, 18] was 7 and the “Partial Responses” value [4, 18] was 1. For the same compound, the “Stable Disease” value [4, 18] was 2, the “Toxic Deaths” value [4, 18] was 0 and the “Complete Responses” value [4, 19] was 6. For the same compound, the “Partial Responses” value [4, 19] was 0, the “Stable Disease” value [4, 19] was 2 and the “Toxic Deaths” value ([4]; male mice, 73 mg/kg i.v. in 5% ethanol and 95% Liposyn III (Group 5), footnote: one death due to an unknown reason) was 2^a. For the same compound, the “Complete Responses” value [4, 20] was 6, the “Partial Responses” value [4, 20] was 3 and the “Stable Disease” value [4, 20] was 1. For the same compound, the “Toxic Deaths” value [4, 20] was 0.

— patent publication EP1285918A1, “C7 Ester substituted taxanes as antitumor agents” (Florida State University Research Foundation, Inc., priority 2001, dated 2003)
